For test [1], the target named is T1, AHR (Homo sapiens, UniProt P35869).
T1 construct: U87 MG glioblastoma cells (ATCC #HTB-14) endogenously expressing AHR; endogenous in cells; host or cells: U87 MG glioblastoma cells (ATCC #HTB-14)
T1 sequence (P35869 11-848): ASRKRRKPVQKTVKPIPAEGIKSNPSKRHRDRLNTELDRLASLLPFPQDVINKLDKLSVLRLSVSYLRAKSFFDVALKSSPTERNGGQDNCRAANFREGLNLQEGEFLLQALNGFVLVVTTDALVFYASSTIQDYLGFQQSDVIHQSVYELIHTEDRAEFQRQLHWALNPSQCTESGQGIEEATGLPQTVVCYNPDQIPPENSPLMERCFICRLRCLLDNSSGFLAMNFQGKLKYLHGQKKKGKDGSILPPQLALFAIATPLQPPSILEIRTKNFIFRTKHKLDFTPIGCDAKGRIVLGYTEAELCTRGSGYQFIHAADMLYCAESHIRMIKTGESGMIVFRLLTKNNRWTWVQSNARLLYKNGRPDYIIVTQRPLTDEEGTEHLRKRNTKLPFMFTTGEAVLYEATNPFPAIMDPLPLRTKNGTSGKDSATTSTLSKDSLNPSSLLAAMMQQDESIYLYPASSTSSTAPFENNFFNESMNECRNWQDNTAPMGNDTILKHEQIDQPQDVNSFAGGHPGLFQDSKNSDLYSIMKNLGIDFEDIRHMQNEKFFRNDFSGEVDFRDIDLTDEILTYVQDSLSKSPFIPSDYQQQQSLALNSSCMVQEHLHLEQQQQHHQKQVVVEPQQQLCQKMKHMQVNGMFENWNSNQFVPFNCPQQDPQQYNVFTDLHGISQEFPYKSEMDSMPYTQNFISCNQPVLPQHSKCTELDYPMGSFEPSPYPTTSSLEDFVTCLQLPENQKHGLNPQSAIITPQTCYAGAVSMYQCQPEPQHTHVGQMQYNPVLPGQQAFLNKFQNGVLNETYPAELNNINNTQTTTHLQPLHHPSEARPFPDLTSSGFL
Briefly: In vitro assay 1: antagonism in human cell line (AHR transactivation, firefly luciferase reporter, kynurenic acid prestimulated). The format is cell-based. The conditions noted are these: AHR Antagonism Human IC50 [M]. The essentials:
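Antagonism is measured against kynurenic acid prestimulation in U87 MG glioblastoma cells carrying stable DRE-luciferase and Renilla reporters. Positive inhibition control: 150 μM kynurenic acid with 5 μM staurosporine. Values are normalized to controls; repeats are averaged or given as medians.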

Test [2] concerns the target T2, AHR (Mus musculus, UniProt P30561).
T2 sequence (P30561 1-848 P471L/N533S/M589L): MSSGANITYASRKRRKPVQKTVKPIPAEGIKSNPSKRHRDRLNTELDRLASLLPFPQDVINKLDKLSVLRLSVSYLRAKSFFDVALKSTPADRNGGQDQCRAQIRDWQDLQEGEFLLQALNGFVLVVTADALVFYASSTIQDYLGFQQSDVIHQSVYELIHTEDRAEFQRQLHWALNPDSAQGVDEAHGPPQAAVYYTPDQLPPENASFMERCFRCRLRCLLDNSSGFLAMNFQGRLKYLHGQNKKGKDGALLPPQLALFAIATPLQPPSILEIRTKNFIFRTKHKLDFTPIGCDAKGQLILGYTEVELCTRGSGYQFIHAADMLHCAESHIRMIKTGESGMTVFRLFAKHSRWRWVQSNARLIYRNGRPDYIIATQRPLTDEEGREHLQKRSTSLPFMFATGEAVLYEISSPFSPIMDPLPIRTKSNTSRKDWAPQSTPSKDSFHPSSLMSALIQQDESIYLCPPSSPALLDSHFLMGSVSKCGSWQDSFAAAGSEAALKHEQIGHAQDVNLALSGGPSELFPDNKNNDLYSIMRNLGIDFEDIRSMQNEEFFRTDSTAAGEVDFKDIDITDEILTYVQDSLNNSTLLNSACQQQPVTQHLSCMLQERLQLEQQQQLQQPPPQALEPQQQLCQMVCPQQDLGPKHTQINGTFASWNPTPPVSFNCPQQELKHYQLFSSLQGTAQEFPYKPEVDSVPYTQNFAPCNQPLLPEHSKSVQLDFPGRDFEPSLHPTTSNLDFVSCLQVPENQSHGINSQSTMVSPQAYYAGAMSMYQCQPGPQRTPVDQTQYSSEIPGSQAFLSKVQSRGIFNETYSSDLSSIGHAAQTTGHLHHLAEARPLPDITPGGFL
Briefly: In vitro assay 3: antagonism in mouse cell line (AHR transactivation, firefly luciferase reporter, kynurenic acid prestimulated). The format is cell-based. The essentials:
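Luminescence from an AHR-dependent DRE-luciferase reporter, stably integrated in mouse cells, quantifies blockade of kynurenic acid-driven activation. Unstimulated cells mark maximal inhibition; normalization uses both control types, and multiply tested compounds carry mean or median values.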
For orientation: In a reporter assay the amount or activity of a reporter protein is the signal.

The mark [3] stands for this setting: mouse Hepa 1c1c7 cells, 200 μM kynurenic acid, 20 hours, read-out: AHR Antagonism Mouse IC50.
[4] abbreviates: Hepa 1c1c7 cells, 200 μM kynurenic acid, 20 hours, firefly luciferase reporter, read-out: AHR Antagonism Mouse IC50.

Where two headings read alike, the source gives them in different places.

Consider `CC[C@@H](Nc1nc2ccccc2c2nc(-c3ccc(OC)cc3OC(F)(F)F)nn12)C(N)=O` [Example 511, (2R)-2-({2-[4-methoxy-2-(trifluoromethoxy)phenyl][1,2,4]triazolo[1,5-c]quinazolin-5-yl}amino)butanamide], for which the values for the IC50 in test [1] and in test [2] (setting [3]) were 7.5e-09 M and 1.4 nM, respectively.

With `O=C1NCCNC[C@H]1Nc1nc2c(C3CC3)cccc2c2nc(-c3cnn(CC4CC4)c3)nn12` [Example 954, (6R)-6-({7-cyclopropyl-2-[1-(cyclopropylmethyl)-1H-pyrazol-4-yl][1,2,4]triazolo[1,5-c]quinazolin-5-yl}amino)-1,4-diazepan-5-one], the values for the 50% inhibitory concentration (IC50) in test [1] (firefly luciferase reporter) and in test [2] (setting [4]) were 7.73e-08 M and 341 nM, respectively.

Take `O=C1NCCCC[C@H]1Nc1nc2c(C(F)(F)F)cccc2c2nc(-c3ccc(F)cc3)nn12` [Example 203, (3R)-3-{[2-(4-fluorophenyl)-7-(trifluoromethyl)[1,2,4]triazolo[1,5-c]quinazolin-5-yl]amino}azepan-2-one]: the IC50 (in general, the midpoint of a concentration-inhibition curve) was determined as 6.29e-10 M in test [1] and 0.48 nM in test [2] (setting [3]).

For `NC(=O)[C@@H](CO)Nc1nc2ccccc2c2nc(-c3cccc(OC(F)(F)F)c3)nn12` [Example 313, N^2-{2-[3-(trifluoromethoxy)phenyl][1,2,4]triazolo[1,5-c]quinazolin-5-yl}-D-serinamide], the results for the IC50 in test [1] and in test [2] (setting [3]) were 1.06e-07 M and 99.2 nM, respectively.

On to `COCCN(C)C(=O)[C@@H](C)Nc1nc2c(C(F)(F)F)cccc2c2nc(-c3cnn(C)c3)nn12` [Example 878, N-(2-methoxyethyl)-N-methyl-N^2-[2-(1-methyl-1H-pyrazol-4-yl)-7-(trifluoromethyl)[1,2,4]triazolo[1,5-c]quinazolin-5-yl]-D-alaninamide], for which the half-inhibitory concentration (IC50) in test [1] (firefly luciferase reporter) worked out at 2.78e-08 M; in test [2] (setting [4]) it was 43.3 nM.

As to `CCS(=O)(=O)c1cccc2c1nc(N[C@@H]1CNCCNC1=O)n1nc(-c3cnn(C)c3)nc21` [Example 942, (6R)-6-{[7-(ethanesulfonyl)-2-(1-methyl-1H-pyrazol-4-yl)[1,2,4]triazolo[1,5-c]quinazolin-5-yl]amino}-1,4-diazepan-5-one], the 50% inhibitory concentration (IC50) came out at 7.67e-07 M in test [1] (firefly luciferase reporter) and 4750 nM in test [2] (setting [4]).

As to `COc1ccc(-c2nc3c4cc(F)ccc4nc(N[C@@H]4CCCCNC4=O)n3n2)cc1` [Example 231, (3R)-3-{[9-fluoro-2-(4-methoxyphenyl)[1,2,4]triazolo[1,5-c]quinazolin-5-yl]amino}azepan-2-one], the IC50 came to 8.14e-10 M in test [1] and 0.406 nM in test [2] (setting [3]).

Turning to `O=C1NCCNC[C@H]1Nc1nc2ccccc2c2nc(-c3ccc(Br)cc3Cl)nn12` [Example 255, (6R)-6-{[2-(4-bromo-2-chlorophenyl)[1,2,4]triazolo[1,5-c]quinazolin-5-yl]amino}-1,4-diazepan-5-one], the half-inhibitory concentration (IC50) in test [1] amounted to 4.98e-08 M; in test [2] (setting [3]) it was 5.1 nM.

Turning to `CCn1nc(C)c(-c2nc3c4cccc(C(F)(F)F)c4nc(N[C@@H]4CCCCNC4=O)n3n2)c1C` [Example 738, (3R)-3-{[2-(1-ethyl-3,5-dimethyl-1H-pyrazol-4-yl)-7-(trifluoromethyl)[1,2,4]triazolo[1,5-c]quinazolin-5-yl]amino}azepan-2-one], the half-maximal inhibitory concentration (IC50) in test [1] was 3.4e-09 M; in test [2] (setting [3]) it was 1.03 nM.

With `COc1ccc(-c2nc3c4ccccc4nc(N[C@@H]4CNCCNC4=O)n3n2)cc1OC` [Example 409, (6R)-6-{[2-(3,4-dimethoxyphenyl)[1,2,4]triazolo[1,5-c]quinazolin-5-yl]amino}-1,4-diazepan-5-one], the half-inhibitory concentration (IC50) in test [1] came out at 6.98e-08 M; in test [2] (setting [3]), 17.1 nM.

For `CC[C@@H](Nc1nc2ccccc2c2nc(-c3cccnc3C(F)(F)F)nn12)C(N)=O` [Example 489, (2R)-2-({2-[2-(trifluoromethyl)pyridin-3-yl][1,2,4]triazolo[1,5-c]quinazolin-5-yl}amino)butanamide], the values for the IC50 in test [1] and in test [2] (setting [3]) were 4.24e-07 M and 43.3 nM, respectively.

Regarding `COc1ccc(-c2nc3c4cccc(S(C)(=N)=O)c4nc(N[C@@H]4CCCCNC4=O)n3n2)cc1` (single isomer, unassigned) [Example 855], the IC50 turned out to be 2.28e-09 M in test [1] (firefly luciferase reporter) and 26.1 nM in test [2] (setting [4]).

On to `COc1cccc(-c2nc3c4c(C)cccc4nc(N[C@@H]4CNCCNC4=O)n3n2)c1` [Example 289, (6R)-6-{[2-(3-methoxyphenyl)-10-methyl[1,2,4]triazolo[1,5-c]quinazolin-5-yl]amino}-1,4-diazepan-5-one], for which the IC50 in test [1] was 1.12e-06 M; in test [2] (setting [3]), 269 nM.

In the case of `CC[C@@H](Nc1nc2ccccc2c2nc(-c3cccc(C(F)(F)F)n3)nn12)C(N)=O` [Example 371, (2R)-2-({2-[6-(trifluoromethyl)pyridin-2-yl][1,2,4]triazolo[1,5-c]quinazolin-5-yl}amino)butanamide], the IC50 in test [1] was determined as 7.24e-08 M; in test [2] (setting [3]), 14.6 nM.

Turning to `CS(=N)(=O)c1ccc(-c2nc3c4ccccc4nc(N[C@@H]4CCCCNC4=O)n3n2)cc1` (single isomer, unassigned) [Example 308], the figures for the concentration for half-maximal inhibition (IC50) in test [1] and in test [2] (setting [3]) were 1.1e-07 M and 18.6 nM, respectively.

For `COc1ccc2nc(N[C@@H]3CCCCNC3=O)n3nc(-c4ccccc4F)nc3c2c1` [Example 240, (3R)-3-{[2-(2-fluorophenyl)-9-methoxy[1,2,4]triazolo[1,5-c]quinazolin-5-yl]amino}azepan-2-one], the IC50 turned out to be 4.08e-08 M in test [1] and 171 nM in test [2] (setting [3]).

For `COc1ccc(-c2nc3c4c(C#N)cccc4nc(N[C@@H]4CCCCNC4=O)n3n2)cc1` [Example 246, 2-(4-methoxyphenyl)-5-{[(3R)-2-oxoazepan-3-yl]amino}[1,2,4]triazolo[1,5-c]quinazoline-10-carbonitrile], the IC50 in test [1] worked out at 3.32e-09 M; in test [2] (setting [3]), 11.2 nM.

Consider `O=C1NCCCC[C@H]1Nc1nc2ccccc2c2nc(-c3ccn4ccnc4c3)nn12` [Example 390, (3R)-3-{[2-(Imidazo[1,2-a]pyridin-7-yl)[1,2,4]triazolo[1,5-c]quinazolin-5-yl]amino}azepan-2-one], for which the values for the 50% inhibitory concentration (IC50) in test [1] and in test [2] (setting [3]) were 1.38e-09 M and 1.02 nM, respectively.

Consider `O=C1NCCCC[C@@H]1Nc1nc2ccccc2c2nc(-c3ccsc3)nn12` [Example 341], for which the IC50 was determined as 1.18e-07 M in test [1] and 17.7 nM in test [2] (setting [3]).

For `Cn1nccc1-c1nc2c3ccccc3nc(N[C@@H]3CCCCNC3=O)n2n1` [Example 65, (3R)-3-{[2-(1-methyl-1H-pyrazol-5-yl)[1,2,4]triazolo[1,5-c]quinazolin-5-yl]amino}azepan-2-one], the values for the IC50 in test [1] and in test [2] (setting [3]) were 6.42e-09 M and 3.17 nM, respectively.

Regarding `CC[C@@H](Nc1nc2c(Br)cccc2c2nc(-c3ccc(Cl)cc3OC(F)F)nn12)C(N)=O` [Example 577, (2R)-2-({7-bromo-2-[4-chloro-2-(difluoromethoxy)phenyl][1,2,4]triazolo[1,5-c]quinazolin-5-yl}amino)butanamide], the IC50 in test [1] turned out to be 6.6e-10 M; in test [2] (read-out: AHR Antagonism Mouse IC50, mouse Hepa 1c1c7 cells, 200 μM kynurenic acid, 20 hours), 0.281 nM.

These data come from patent publication US20230113037A1 (Bayer Aktiengesellschaft, priority 2019, published 2023).
